According to patent US12187713B2, “Immunomodulators, compositions and methods thereof” (Betta Pharmaceuticals Co., Ltd, priority 2019, dated 2025):

Assays:
[1] = Pharmacokinetic Assay, single oral dose 100 mg/kg (Table 11); assay type: in vivo; conditions: mouse, C57 female mice, oral (intragastric), plasma
Protocol: Adult C57 female mice were received to single-dose of the test compounds with […], 10% Kolliphor^@HS 15 and 80% saline as excipients, the mice (n=9) were giving oral administration (intragastric administration) with the compounds at a dose of 100 mg/kg. Time of blood collection: 15 min, 30 min, 1 h, 2 h, 4 h, 7 h, 24 h. Approximately 0.1 mL of whole blood was collected from retro-orbital venous plexus of 3 mice at each time point, and placed into tubes that contained K2-EDTA as an anticoagulant. The whole blood was centrifuged at 4° C. and 4000 rpm for 10 min. The plasma was transferred into centrifuge tubes, and stored at −20° C. until being analyzed. Concentrations of test compounds in the plasma samples were analyzed with liquid chromatography-tandem mass spectrometry (LC-MS/MS). Plasma concentration-time data of individual animals was analyzed using Microsoft Excel 2010. Non-compartmental model was introduced in concentration analysis. The pharmacokinetic parameters of the test compounds were calculated using WinNonlin (version 4.1; Pharsight) software.

PD-1/PD-L1 = PD-1/PD-L1 (Homo sapiens (Human), UniProt Q9NZQ7); test: PD-1/PD-L1 Binding Assay (Alphascreen)
Sequence of PD-1/PD-L1 (Q9NZQ7 19-238): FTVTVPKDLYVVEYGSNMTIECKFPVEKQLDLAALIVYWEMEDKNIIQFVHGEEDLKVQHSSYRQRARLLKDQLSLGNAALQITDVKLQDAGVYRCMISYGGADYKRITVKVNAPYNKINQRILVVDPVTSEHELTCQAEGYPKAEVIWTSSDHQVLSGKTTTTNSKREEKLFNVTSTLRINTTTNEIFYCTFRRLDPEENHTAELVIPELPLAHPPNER
Summary of the method: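 PD-1/PD-L1 binding detected by anti-6×His acceptor and streptavidin donor beads after 120 min in the dark at 25 °C. Beforehand, the two proteins were incubated 15 min at 25 °C with inhibitor at 0.015–300 nM (1% DMSO). IC50 comes from a log concentration–response curve.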

[2] = Pharmacokinetic Assay, single oral dose 5 mg/kg (Table 12); assay type: in vivo; conditions: mouse, plasma concentration, C57 female mice, single oral dose 5 mg/kg
Summary of the method: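 Adult female C57 mice (n=3) got one intragastric dose of 5 mg/kg in 15% DMSO, 10% Kolliphor HS 15, 75% saline. Retro-orbital blood was taken at 30 min, 2 h and 4 h into K2-EDTA. Plasma levels were measured by LC-MS/MS.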

Compound	AUC [1] [ng·h/mL]	Cmax [1] [ng/mL]	Tmax [1] [h]	half-life [1] [min]	IC50 (PD-1/PD-L1; numeric values) [nM]	IC50 (PD-1/PD-L1; range symbols) [nM]	concentration at 0.5 h [2] [ng/mL]	concentration at 2 h [2] [ng/mL]	concentration at 4 h [2] [ng/mL]
Cc1c(-c2nc3cc(CN4CCC[C@H]4C(=O)O)c(OC(F)F)cc3o2)cccc1-c1cccc(-c2nc3cc(CN4CC(C)(C)C4)cc(C(F)(F)F)c3o2)c1C [Example 93, ((6-(difluoromethoxy)-2-(3′-(5-((3,3-dimethylazetidin-1-yl)methyl)-7-(trifluoromethyl)benzo[d]oxazol-2-yl)-2,2′-dimethyl-[1,1′-biphenyl]-3-yl)benzo[d]oxazol-5-yl)methyl)-L-proline]	163000	9220	4	–	–	0.1 to 5	–	–	–
Cc1c(-c2nc3cc(CN4CCC[C@H]4CO)c(OC(F)F)cc3o2)cccc1-c1cccc(-c2nc3cc(CN4CCC[C@H]4C(=O)O)c(OC(F)F)cc3o2)c1C [Example 12, ((6-(difluoromethoxy)-2-(3′-(6-(difluoromethoxy)-5-(((S)-2-(hydroxymethyl)pyrrolidin-1-yl)methyl)benzo[d]oxazol-2-yl)-2,2′-dimethyl-[1,1′-biphenyl]-3-yl)benzo[d]oxazol-5-yl)methyl)-L-proline]	14500	1380	2	478	1.1	–	–	–	–
Cc1c(Nc2nccc3cc(CN4CCC(O)C4)cnc23)cccc1-c1cccc(-c2nc3cc(CN4CCC[C@H]4C(=O)O)c(OC(F)F)cc3o2)c1C (stereo partly drawn) [Example 175, ((6-(difluoromethoxy)-2-(3′-((3-((3-hydroxypyrrolidin-1-yl)methyl)-1,7-naphthyridin-8-yl)amino)-2,2′-dimethyl-[1,1′-biphenyl]-3-yl)benzo[d]oxazol-5-yl)methyl)-L-proline]	19900	1630	2	218	3.4	–	–	–	–
COC[C@@H]1CCCN1Cc1cc2nc(-c3cccc(-c4cccc(-c5nc6cc(CN7CCC[C@H]7C(=O)O)c(OC(F)F)cc6o5)c4C)c3C)oc2cc1OC(F)F [Example 63, ((6-(difluoromethoxy)-2-(3′-(6-(difluoromethoxy)-5-(((S)-2-(methoxymethyl)pyrrolidin-1-yl)methyl)benzo[d]oxazol-2-yl)-2,2′-dimethyl-[1,1′-biphenyl]-3-yl)benzo[d]oxazol-5-yl)methyl)-L-proline]	43700	2920	1	348	5.7	–	–	–	–
Cc1c(-c2nc3cc(CN4CCC[C@H]4C(=O)O)c(OC(F)F)cc3o2)cccc1-c1cccc(-c2nc3cc(CN4CCCC4)c(OC(F)F)cc3o2)c1C#N [Example 65, ((2-(2′-cyano-3′-(6-(difluoromethoxy)-5-(pyrrolidin-1-ylmethyl)benzo[d]oxazol-2-yl)-2-methyl-[1,1′-biphenyl]-3-yl)-6-(difluoromethoxy)benzo[d]oxazol-5-yl)methyl)proline]	40400	2460	4	644	1.3	–	–	–	–
Cc1c(-c2nc3cc(CN4CCC4C)c(OC(F)F)cc3o2)cccc1-c1cccc(-c2nc3cc(CN4CCC[C@H]4C(=O)O)c(OC(F)F)cc3o2)c1C (stereo partly drawn) [Example 36, ((6-(difluoromethoxy)-2-(3′-(6-(difluoromethoxy)-5-((2-methylazetidin-1-yl)methyl)benzo[d]oxazol-2-yl)-2,2′-dimethyl-[1,1′-biphenyl]-3-yl)benzo[d]oxazol-5-yl)methyl)-L-proline]	21400	1670	1	496	1.1	–	–	–	–
Cc1c(-c2nc3cc(CN4CC(C#N)C4)c(OC(F)F)cc3o2)cccc1-c1cccc(-c2nc3cc(CN4CCC[C@H]4C(=O)O)c(OC(F)F)cc3o2)c1C [Example 80, ((2-(3′-(5-((3-cyanoazetidin-1-yl)methyl)-6-(difluoromethoxy)benzo[d]oxazol-2-yl)-2,2′-dimethyl-[1,1′-biphenyl]-3-yl)-6-(difluoromethoxy)benzo[d]oxazol-5-yl)methyl)-L-proline]	–	–	–	–	–	5 to 50	247	299	167
COc1nc(-c2cccc(-c3cccc(-c4nc5cc(CN6CCC[C@H]6C(=O)O)c(OC(F)F)cc5o4)c3C)c2C)ccc1CNCC1CCC(=O)N1 (stereo partly drawn) [Example 276, ((6-(difluoromethoxy)-2-(3′-(6-methoxy-5-((((5-oxopyrrolidin-2-yl)methyl)amino)methyl)pyridin-2-yl)-2,2′-dimethyl-[1,1′-biphenyl]-3-yl)benzo[d]oxazol-5-yl)methyl)-L-proline]	–	–	–	–	–	0.1 to 5	131	291	238
Cc1c(-c2ccc(CN3CCCC3)c(C#N)c2)cccc1-c1cccc(-c2nc3cc(CN4CCC[C@H]4C(=O)O)c(OC(F)F)cc3o2)c1C [Example 245, ((2-(3″-cyano-2,2′-dimethyl-4″-(pyrrolidin-1-ylmethyl)-[1,1′:3′,1″-terphenyl]-3-yl)-6-(difluoromethoxy)benzo[d]oxazol-5-yl)methyl)-L-proline]	–	–	–	–	3.8	–	101	237	191
Cc1c(-c2nc3cc(CN4CCC[C@H]4C(=O)O)c(OC(F)F)cc3o2)cccc1-c1cccc(-c2nc3cc(CN4[C@H]5CC[C@@H]4CC5)c(OC(F)F)cc3o2)c1C [Example 72, ((2-(3′-(5-(((1s,4s)-7-azabicyclo[2.2.1]heptan-7-yl)methyl)-6-(difluoromethoxy)benzo[d]oxazol-2-yl)-2,2′-dimethyl-[1,1′-biphenyl]-3-yl)-6-(difluoromethoxy)benzo[d]oxazol-5-yl)methyl)-L-proline]	–	–	–	–	0.98	–	42.6	140	132

Continued, values first:

AUC [1] [ng·h/mL]	Cmax [1] [ng/mL]	Tmax [1] [h]	half-life [1] [min]	IC50 (PD-1/PD-L1; numeric values) [nM]	IC50 (PD-1/PD-L1; range symbols) [nM]	concentration at 0.5 h [2] [ng/mL]	concentration at 2 h [2] [ng/mL]	concentration at 4 h [2] [ng/mL]	Compound
8570	1280	1	214	0.2	–	–	–	–	Cc1c(-c2nc3c(o2)CCNC3)cccc1-c1cccc(-c2nc3cc(CN4CCC[C@H]4C(=O)O)c(OC(F)F)cc3o2)c1C [Example 190, ((6-(difluoromethoxy)-2-(2,2′-dimethyl-3′-(4,5,6,7-tetrahydrooxazolo[4,5-c]pyridin-2-yl)-[1,1′-biphenyl]-3-yl)benzo[d]oxazol-5-yl)methyl)-L-proline]
235000	18900	4	630	–	0.1 to 5	–	–	–	Cc1c(-c2nc3cc(CN4CCC[C@H]4C(=O)O)c(OC(F)F)cc3o2)cccc1-c1cccc(-c2nc3cc(CN4CCCC4)cc(C(F)(F)F)c3o2)c1C [Example 100, ((6-(difluoromethoxy)-2-(2,2′-dimethyl-3′-(5-(pyrrolidin-1-ylmethyl)-7-(trifluoromethyl)benzo[d]oxazol-2-yl)-[1,1′-biphenyl]-3-yl)benzo[d]oxazol-5-yl)methyl)-L-proline]
–	–	–	–	2.2	–	178	640	579	Cc1c(-c2nc3cc(CN4CCC[C@H]4C(=O)O)c(OC(F)F)cc3o2)cccc1-c1cccc(-c2nc3cc(CN4CCCC4)c(C(F)(F)F)cc3o2)c1C [Example 101, ((6-(difluoromethoxy)-2-(2,2′-dimethyl-3′-(5-(pyrrolidin-1-ylmethyl)-6-(trifluoromethyl)benzo[d]oxazol-2-yl)-[1,1′-biphenyl]-3-yl)benzo[d]oxazol-5-yl)methyl)-L-proline]
–	–	–	–	–	0.1 to 5	1000	1440	1420	Cc1c(-c2nc3c(o2)CCCC3)cccc1-c1cccc(-c2nc3cc(CN4CCC[C@H]4C(=O)O)c(OC(F)F)cc3o2)c1C [Example 205, ((6-(difluoromethoxy)-2-(2,2′-dimethyl-3′-(4,5,6,7-tetrahydrobenzo[d]oxazol-2-yl)-[1,1′-biphenyl]-3-yl)benzo[d]oxazol-5-yl)methyl)proline]
–	–	–	–	4.7	–	42.3	199	181	Cc1c(-c2nc3cc(CN4CCC[C@H]4C(=O)O)c(OC(F)F)cc3o2)cccc1-c1cccc(-c2ccc(CN3CCCC3)cc2F)c1C [Example 253, ((6-(difluoromethoxy)-2-(2″-fluoro-2,2′-dimethyl-4″-(pyrrolidin-1-ylmethyl)-[1,1′:3′,1″- terphenyl]-3-yl)benzo[d]oxazol-5-yl)methyl)-L-proline]
–	–	–	–	–	> 50	674	1440	1100	Cc1c(-c2nc3c(o2)CCN(CCC(F)(F)F)C3)cccc1-c1cccc(-c2nc3cc(CN4CCC[C@H]4C(=O)O)c(OC(F)F)cc3o2)c1C [Example 198, ((6-(difluoromethoxy)-2-(2,2′-dimethyl-3′-(5-(3,3,3-trifluoropropyl)-4,5,6,7-tetrahydrooxazolo[4,5-c]pyridin-2-yl)-[1,1′-biphenyl]-3-yl)benzo[d]oxazol-5-yl)methyl)proline]
